{"source": "patent US20220096561A1", "about": "“INHIBITING OR ALLEVIATING AGENT FOR INFLAMMATION IN THE BRAIN” (NIPPON ZOKI PHARMACEUTICAL CO., LTD., priority 2019, published 2022)", "assay_type_in_all_cases": "cell-based, murine", "key": {"BV-2 cell [1]": {"system": "BV-2 cell", "experiment": "IL-1β, IL-6, TNF-α expression in LPS-treated BV-2 cells", "conditions": "LPS + NTP, pre-treated with 10 uM ANA12 1 h before NTP, FIG. 6A-C", "method": "(§1) Immortal BV-2 murine microglial cells, a gift from Dr. Ying Chen of Sun Yat-sen Memorial Hospital, Sun Yat-sen University were cultured as described (refer Non-Patent Document 2). BV-2 cultures were treated with 0.1 NU/mL NTP, then given lipopolysaccharides (1000 ng/mL, LotL2880, O55:B5, Sigma-Aldrich, St. Louis, Mo., USA) 12 h later."}, "BV-2 cell [2]": {"system": "BV-2 cell", "experiment": "BDNF level in LPS-treated BV-2 cells", "conditions": "LPS + NTP + ANA12, FIG. 6E", "method": "as §1"}, "BV-2 cell [3]": {"system": "BV-2 cell", "experiment": "p-p65 and p-IκB-α expression in LPS-stimulated cells", "conditions": "LPS + NTP + ANA-12, FIG. 6F-H", "method": "as §1\nWestern blotting and semi-quantitative analyses were performed following previously described procedures (refer Liao W, Jiang M J, Li M, Jin C L, Xiao S H, Fan S N, Fang W L, Zheng Y Q and Liu J. Magnesium Elevation Promotes Neuronal Differentiation While Suppressing Glial Differentiation of Primary Cultured Adult Mouse Neural Progenitor Cells through ERK/CREB Activation. Frontiers in Neuroscience 2017; 11:). In brief, proteins in cerebral cortex and hippocampus were extracted with lysis buffer for 30 min, followed by centrifugation at 14,000 rpm for 15 min at […] to obtain the supernatant for western blot analysis. Primary antibodies and dilution rates used were listed as follow: NF-κB (p65), 1:1000; p-IκBα, 1:500 and β-actin, 1:1000. Primary antibodies against NF-κB (p65), p-IκBα and β-actin were purchased from Cell Signaling Technology Inc (MA, USA). […] The quantification of protein expression was analyzed by Image J (National Institutes of Health, Md., USA)."}}, "data": [{"smiles": "O=C(Nc1ccccc1C(=O)NC1CCCCNC1=O)c1cc2ccccc2s1", "note": "(stereo not drawn) [ANA12]", "values": [{"measurement": "expression of IL-1β", "setting": "BV-2 cell [1]", "result": "increased after ANA12 administration"}, {"measurement": "expression of IL-6", "setting": "BV-2 cell [1]", "result": "increased after ANA12 administration"}, {"measurement": "expression of TNF-α", "setting": "BV-2 cell [1]", "result": "increased after ANA12 administration"}, {"measurement": "effect of NTP on BDNF", "setting": "BV-2 cell [2]", "result": "abolished by ANA12"}, {"measurement": "activation of p-IκB-α", "setting": "BV-2 cell [3]", "result": "abolished by ANA-12"}, {"measurement": "activation of p-P65", "setting": "BV-2 cell [3]", "result": "abolished by ANA-12"}]}]}
